The EC50 is the concentration at which the effect is half-maximal.

Results on one molecule are retold here after patent US12612395B2, “Rocaglate derivatives and uses thereof” (TRUSTEES OF BOSTON UNIVERSITY, priority 2023, dated 2026).

The test system of data set [1] is GBM0308 neurospheres. Nature of the data set: Neurosphere formation assay (single neurosphere, PI/Hoechst). It is filed as cell-based. Particulars: three days treatment. How it is done: (§1) To gain additional mechanistic insights into GBM cell death induced by (−)-20, the inventors conducted several functional assays. The inventors first derived a single neurosphere from GBM0308 cells cultured in stem cell conditions, which was treated with either DMSO or (−)-20 at varying doses for three days followed by staining with PI and Hoechst dyes and subsequent imaging. […] To capture the kinetics of apoptotic events, the inventors employed caspase 3/7 staining of GBM0308 neurospheres treated with either DMSO or (−)-20 and subsequently evaluated at three timepoints over a 48-hour period. […] (FIG. 5B).
Neurosphere Formation Assays: Single neurospheres were generated by seeding GBM0308 cells (400 cells per well) in a 384-well ultra-low attachment round bottom microplate (Nexcelom Bioscience, ULA-384 U). The plates were then centrifuged at 300×g for 10 minutes to cluster cells at the bottom of the wells, followed by incubation at 37° C. and 5% CO2 for 4 days to allow the formation of single neurospheres and treated with either DMSO or drugs at concentrations of 3.3, 1.11, 0.37, 0.12, 0.041, 0.013, 0.004 μM. On Day 7, neurospheres were stained with propidium iodide and Hoechst, as described above. The “neurosphere 1+Mask” application was used to measure the fluorescent intensities of PI, using Celigo cytometer as described previously.^70

Data set [2] has as its system GBM0308 neurospheres. Nature of the data set: Caspase 3/7 staining of neurospheres. The settings on record: 1 μM, 24- and 48-hour timepoints. It is filed as cell-based, human. How it is done:
as §1
(§2) Apoptosis Assays: For the Caspase 3/7 assay single neurospheres were generated as described above. On day four, neurospheres were treated with compound (−)-20. Apoptosis in treated tumorspheres was assessed using Nexcelom's ViaStain™ Live Caspase 3/7 Detection kit (Nexcelcom, CS1-V0002-1). […] Plates were imaged using the “neurosphere 1+Mask” application to measure fluorescent intensities of the caspase dye, as described previously.^70 Apoptosis was quantified using the FITC Annexin V apoptosis detection kit II (Invitrogen). […] At 12 h and 24 h after treatment, neurospheres were gently dissociated by using trypsin 0.025%, stained with PI and FITC and analyzed by flow cytometery using a Bio-Rad ZE5 Cell Analyzer.

Data set [3] deals with BT112 CSCs. Nature of the data set: Dose-response killing of CSCs in BT112 glioblastoma cell line. It is filed as cell-based. The settings on record: Homo sapiens, read-out: CSC EC50. How it is done: (§3) Cell Culture: Glioblastoma stem cell lines GBM0308, BT145, and BT112 were cultured in neurobasal (NBE medium) containing N-2 and B-27 supplements, EGF, bFGF, L-glutamine, and Penicillin-Streptomycin), as described previously.^19 Adherent GBM cells were cultured in serum-containing DMEM media (Invitrogen) supplemented with 10% fetal bovine serum (Corning Cellgro™). Cells were incubated at 37° C. and 5% CO2 to allow neurosphere formation. For seeding and subculturing, the neurospheres were gently trypsinized with 0.025% trypsin to form a single-cell suspension.
(§4) Dose-Response Testing in GBM Cells: Briefly, on day 1, cells were seeded in triplicate. For CSCs, 1500 cells/well were plated in a low attachment 96-well plate with NBE media and incubated for 3 days at 37° C. and 5% CO2 to allow the formation of neurospheres. For non-CSCs, 3000 cells/well were plated in a 96-well plate with DMEM media supplemented with 10% FBS. Similarly, the assay plates were also incubated for the same duration. Compound treatments started on day 4. […] After incubation, plates were read by Celigo imaging cytometer using an inbuilt Celigo application; Cell Viability (Dead+Total). For the viability measurement, the total number of neurospheres/cells and dead neurospheres/cells in each well were counted by the cytometer. […]

Data set [4] relates to GBM0308 cells (CSCs). The experiment in a line: Annexin V/PI flow cytometry apoptosis assay. The data set is classed as cell-based, human. Particulars: 1 μM, 12 h and 24 h. How it is done: as §1, §2
(Flow cytometry measures light scatter and fluorescence of single cells or particles in a stream.)

Data set [5] relates to BT145 CSCs. Nature of the data set: Dose-response killing of CSCs in BT145 glioblastoma cell line. It is filed as cell-based. Particulars: Homo sapiens, read-out: CSC EC50. On the procedure: as §3, §4

On to `COc1cc(OC)c2c(c1)O[C@@]1(c3ccc(Br)cc3)[C@H](c3ccccc3)[C@@H](C(=O)NS(=O)(=O)N(C)C)[C@@H](O)[C@@]21O` [(−)-20, (1R,2R,3S,3aR,8bS)-3a-(4-bromophenyl)-N—(N,N-dimethylsulfamoyl)-1,8b-dihydroxy-6,8-dimethoxy-3-phenyl-2,3,3a,8b-tetrahydro-1H-cyclopenta[b]benzofuran-2-carboxamide], for which, in data set [1], the “concentration from which cytotoxic effects on CSC neurospheres are seen (PI staining)” value was ≥ 0.12 µM. In data set [1] (varying doses), the “effect on neurosphere size, in words” value is on record as “dose-dependent reduction in neurosphere size”. Further, in data set [2], the “caspase 3/7 staining” value was “positive staining”. Besides, the EC50 in data set [3] turned out to be 0.034 µM; in data set [5], 0.093 µM. Besides, the “Annexin V/PI staining (apoptosis)” value in data set [4] is on record as “induced apoptosis”.
